Tests used:
AmpC β-lactamase = settings: cited from earlier work
[1] = system: Thyroid stimulating hormone receptor (TSHR); settings: AID 926; cited from earlier work
LHR = settings: cited from earlier work
TSHR [2] = settings: cited from earlier work
TSHR [3] = settings: sera from 4 Graves' disease patients, cAMP accumulation; cited from earlier work
[4] = system: thyroperoxidase mRNA expression; settings: human thyrocytes, 10 μM and 30 μM; cited from earlier work
S. mansoni adult worms = settings: 100 μM carboxy-PTIO (NO scavenger); cited from earlier work
S. mansoni TGR = settings: single 10 μM exposure to 15 nM S. mansoni TGR, NADPH; cited from earlier work
glucocerebrosidase (GC) = settings: native GC; cited from earlier work
Aqueous solubility = format: physicochemical
N370S mutant GC = N370S mutant GC fibroblasts, 40 μM; cited from earlier work
Microsomal stability = format: in vitro ADME; settings: rat
[5] = system: β-N-acetylflucosaminidase; settings: cited from earlier work
Caco-2 = Caco-2 permeability; format: in vitro ADME
Cyp = Cyp inhibition; format: in vitro ADME
Plasma protein binding = format: in vitro ADME; settings: low free fraction
α-galactosidase = settings: cited from earlier work
α-glucosidase = settings: cited from earlier work

For `CC(C)[C@H](NC(=O)OC(C)(C)C)c1nnc(S(=O)(=O)Cc2c(F)cccc2Cl)o1` [NCGC00067197, (S)-tert-butyl 1-(5-(2-chloro-6-fluorobenzylsulfonyl)-1,3,4-oxadiazol-2-yl)-2-methylpropylcarbamate], the IC50 (AmpC β-lactamase) is given as 16 nM.
For `COc1ccc(C2Nc3ccccc3C(=O)N2Cc2ccccc2)cc1COc1ccc(NC(C)=O)cc1` (centres unmarked) [NCGC00161876, N-(4-(5-(3-benzyl-4-oxo-1,2,3,4-tetrahydroquinazolin-2-yl)-2-methoxybenzyloxy)phenyl)acetamide], the “TSHR agonism in qHTS” value [1] is given as “agonists”.
In the case of `COc1cccc(-c2nc(SC)nc3sc(C(=O)NC(C)(C)C)c(N)c23)c1` [Org 41841, reference compound], the LHR agonism (LHR) is listed as “highly potent” and the “response at TSHR” value (TSHR [2]; lower potency relative to LHR) is listed as “agonistic response”.
In the case of `O=C(O)c1ccc2c(c1)C(=O)N([C@H](Cc1cccc3ccccc13)C(=O)O)C2=O` [NCGC00161790, (R)-2-(1-carboxy-2-(naphthalen-1-yl)ethyl)-1,3-dioxoisoindoline-5-carboxylic acid], the Ki (AmpC β-lactamase) is given as 5000 nM.
In the case of `COC/C=C/c1ccc(-c2nc(SC)nc3sc(C(=O)NC(C)(C)C)c(N)c23)cc1` [NCGC00166332], the “blocking the activity of thyroid-stimulating antibodies” value (TSHR [3]) is given as “capable of blocking”, the TSHR antagonism (TSHR [2]) is given as “antagonist” and the “blocking thyroperoxidase mRNA expression” value [4] is given as “capable of blocking”.
In the case of `N#Cc1c(-c2ccccc2)no[n+]1[O-]` [furoxan, 3-cyano-4-phenyl-1,2,5-oxadiazole 2-oxide], the “worm killing potential in the presence of carboxy-PTIO” value (S. mansoni adult worms) is given as “largely mitigated” and the NO release (S. mansoni TGR) is given as “appreciable amount of NO”.
For `Cc1cc(N2CCOCC2)nc2ccc(NC(=O)C3CCCCC3)cc12` [NCGC00092410, N-(4-methyl-2-morpholinoquinolin-6-yl)cyclohexanecarboxamide], the Ki (glucocerebrosidase (GC)) is listed as 21 nM, the aqueous solubility (Aqueous solubility) is listed as “acceptable” and the “co-localization of mutant GC to the lysosome” value (N370S mutant GC) is listed as “co-localization of this mutant form of GC to the lysosome”. For the same compound, the microsomal stability (Microsomal stability) was “acceptable”, the “inhibitory capacity for β-N-acetylflucosaminidase” value [5] was “no inhibitory capacity” and the Caco-2 permeability (Caco-2) was “acceptable”. For the same compound, the Cyp inhibition (Cyp) was “no relevant Cyp inhibition”, the plasma protein binding (Plasma protein binding) was “high level” and the “inhibitory capacity for α-galactosidase” value (α-galactosidase) was “no inhibitory capacity”. The “inhibitory capacity for α-glucosidase” value (α-glucosidase) was “no inhibitory capacity”.

From article PMC2989597 (Current topics in medicinal chemistry, 2009)
